Values of other authors in paper PMC9230590, “Pharmacokinetics and Tissue Distribution of Enavogliflozin in Mice and Rats” (Pharmaceutics, 2022).
Like-named read-outs stand apart in the source and are kept apart here.

Tests used:
HbA1c = settings: cited from earlier work
[1] = rats and humans, single oral dose of [14C]dapagliflozin; cited from earlier work
[2] = set-up: method as in PMID 32183468; settings: mice; cited from earlier work
[3] = cited from earlier work
[4] = single oral administration of [14C]canagliflozin
[5] = single oral administration of [14C]ipragliflozin

For `CCOc1ccc(Cc2cc([C@@H]3O[C@H](CO)[C@@H](O)[C@H](O)[C@H]3O)ccc2Cl)cc1` [dapagliflozin], the “reduction in HbA1c values” (HbA1c; monotherapy 2.5–10 mg, once daily for 24 weeks, untreated T2DM patients) is given as 0.67–0.84%, the “reduction of mean HbA1c compared with conventional monotherapy” value (HbA1c; with conventional anti-diabetes medication, meta-analysis) is given as 0.54% and the “drug-related radioactivity (parent and glucuronide metabolite) recovered in urine” value [1] is given as “more than 90%”. The “ratio of AUC in kidney to AUC in plasma” value [2] was 64.6 ± 31.8.

In the case of `Cc1ccc([C@@H]2O[C@H](CO)[C@@H](O)[C@H](O)[C@H]2O)cc1Cc1ccc(-c2ccc(F)cc2)s1` [canagliflozin], the “reduction of HbA1c” value (HbA1c; untreated type 2 diabetic (T2DM) patients) is given as 0.97%, the “fecal recovery of radioactivity” value [3, 4] is given as 85.4–93.7% and the “hydroxylated metabolites in fecal recovery” value [3, 4] is given as 7.6–64.3%. The “unchanged drug in fecal recovery” value [3, 4] was 3.5–38.7%.

For `OC[C@H]1O[C@@H](c2ccc(Cl)c(Cc3ccc(O[C@H]4CCOC4)cc3)c2)[C@H](O)[C@@H](O)[C@@H]1O` [empagliflozin], the “reduction of HbA1c” value (HbA1c; empagliflozin-treated patients) is listed as 0.74–0.85%.

In the case of `OC[C@H]1O[C@@H](c2ccc(F)c(Cc3cc4ccccc4s3)c2)[C@H](O)[C@@H](O)[C@@H]1O` [ipragliflozin], the “cumulative fecal recovery of drug-related radioactivity” value [3, 5] is given as 86.9% ± 2.6%, the “glucuronide metabolite identified in feces” value [3, 5] is given as “about 64%” and the “unchanged drug identified in feces” value [3, 5] is given as “less than 5%”. For the same molecule, the “ratio of AUC in kidney to AUC in plasma” value [2] was 38.4 ± 5.3.
